{"source": "patent US11672775B2", "about": "“Treprostinil prodrugs” (United Therapeutics Corporation, priority 2016, dated 2023)", "key": {"Sprague Dawley rats [1]": {"tested_on": "Sprague Dawley rats", "assay": "Cardiovascular assessment by radiotelemetry following subcutaneous injection (Example 12)", "assay_type": "in vivo, Sprague Dawley rat", "experimental": "(§1) Clinical observations were performed at approximately 6 hours prior to dosing, at the completion of dosing and at approximately 4 hours postdosing."}, "Sprague Dawley rats [2]": {"tested_on": "Sprague Dawley rats", "assay": "Rat intraplantar injection model, von Frey test (Example 10)", "assay_type": "in vivo, Sprague Dawley rat", "conditions": "1 μg/mL or 100 μg/mL; 15 and 90 minutes post-injection", "experimental": "(§2) Male Sprague Dawley rats (n=56) were allocated into 7 groups of 8 animals per group. […] Each group was compared to the phosphate buffer (50-mM phosphate buffer with 50-mM sodium chloride at pH=7.4) treated group, which served as the control (Group 1).\n(§3) Animals were administered 0.1 mL of test material by subcutaneous injection into the paw pad (Intraplantar injection) at time zero. Then, the animals were subsequently evaluated for their response to mechanical (von Frey filaments) and thermal stimuli, 15 and 90 minutes post-injection. The von Frey test was conducted prior to the thermal test, which followed immediately within minutes for each animal. In addition, clinical observation scoring of the animal's reaction to injection was conducted.\nMechanical pain sensitivity was tested using the von Frey test, which measures the withdrawal force threshold of the animals. The lower the force applied represents a greater sensitivity to the stimulus. The von Frey test was performed 15 and 90 minutes post-test item injection."}, "Sprague Dawley rats [3]": {"tested_on": "Sprague Dawley rats", "assay": "Rat intraplantar injection model, clinical observation score (Example 9)", "assay_type": "in vivo, Sprague Dawley rat", "experimental": "(§4) Male Sprague Dawley rats (n=112) were allocated into 14 groups of 8/group. The study was run in 2 cycles, on consecutive days, 7 groups per cycle. Each cycle was composed of a Saline group, PBS group, which served as the control, and also treprostinil at a dose of 100 μg/mL or 1 μg/mL.\nas §3, with “Animals” for “Then, the animals”, “conducted. FIG. 16 schematically illustrates the study design.” for “conducted.”\nA Clinical observation score was assigned by assessing for redness, swelling and paw placement."}, "Sprague Dawley rats [4]": {"tested_on": "Sprague Dawley rats", "assay": "Rat intraplantar injection model, clinical observation score (Example 10)", "assay_type": "in vivo, Sprague Dawley rat", "conditions": "1 μg/mL; both time-points; compared with similar dose of treprostinil", "experimental": "as §2, §3\nA clinical observation score was assigned by assessing for redness, swelling and paw placement."}, "Sprague Dawley rats [5]": {"tested_on": "Sprague Dawley rats", "assay": "Rat intraplantar injection model, thermal pain sensitivity (Example 10)", "assay_type": "in vivo, Sprague Dawley rat", "experimental": "as §2, §3\n(§5) The sensitivity of animals to a thermal pain stimulus was assessed immediately following the von Frey test. The time until withdrawal of the right-injected leg from a heat source was measured, and the lower (faster) the time of response represents a greater sensitivity to the stimulus. The test was performed 15 and 90 minutes post-test item injection."}, "Sprague Dawley rats [6]": {"tested_on": "Sprague Dawley rats", "assay": "Rat intraplantar injection model, von Frey test (Example 9)", "assay_type": "in vivo, Sprague Dawley rat", "conditions": "for von Frey withdrawal force threshold vs PBS-treated group: both time points post-injection", "experimental": "as §4\nas §3, with “Animals” for “Then, the animals”, “conducted. FIG. 16 schematically illustrates the study design.” for “conducted.”\nMechanical pain sensitivity was tested using the von Frey test, which measures the withdrawal force threshold of the animals. The lower the force applied represents a greater sensitivity to the stimulus. The von Frey test was performed 15 and 90 minutes post-Test Item injection."}, "Sprague Dawley rats [7]": {"tested_on": "Sprague Dawley rats", "assay": "Rat intraplantar injection model, thermal pain sensitivity (Example 9)", "assay_type": "in vivo, Sprague Dawley rat", "conditions": "100 μg/mL; both time points", "experimental": "as §4\nas §3, with “Animals” for “Then, the animals”, “conducted. FIG. 16 schematically illustrates the study design.” for “conducted.”\nas §5, with “post-Test Item” for “post-test item”"}, "Sprague Dawley rats [8]": {"tested_on": "Sprague Dawley rats", "assay": "Clinical observations following subcutaneous injection (Example 12)", "assay_type": "in vivo, Sprague Dawley rat", "conditions": "3, 10, or 30 mg/kg SC; some animals; approximately 4 hours", "experimental": "as §1"}, "[9]": {"assay": "In vitro metabolic stability in liver microsomes", "conditions": "Monkey; +NADPH"}, "[10]": {"assay": "In vitro metabolic stability in liver microsomes", "conditions": "Rat"}, "in vitro": {"assay": "in vitro", "conditions": "monkey, liver microsomes, pH 7.4"}, "[11]": {"conditions": "only the 1 μg/mL dose, both time points"}}}
{"smiles": "CCCCC[C@H](O)CC[C@@H]1[C@H]2Cc3cccc(OCC(=O)NCC(=O)O)c3C[C@H]2C[C@H]1O", "note": "[Prodrug VII]", "values": [{"measurement": "diastolic blood pressure change", "setting": "Sprague Dawley rats [1]; 0.1 mg/kg SC (for Prodrug VII)", "value": "No meaningful change"}, {"measurement": "mean blood pressure change", "setting": "Sprague Dawley rats [1]; 0.1 mg/kg SC (for Prodrug VII)", "value": "No meaningful change"}, {"measurement": "systolic blood pressure change", "setting": "Sprague Dawley rats [1]; 0.1 mg/kg SC (for Prodrug VII)", "value": "No meaningful change"}, {"measurement": "body temperature change", "setting": "Sprague Dawley rats [1]; 1 mg/kg SC", "value": "No significant changes"}, {"measurement": "diastolic blood pressure change", "setting": "Sprague Dawley rats [1]; 3 mg/kg SC", "value": "Marginally lower"}, {"measurement": "diastolic blood pressure lowering persisted through", "setting": "Sprague Dawley rats [1]; 3 mg/kg SC", "value": 80, "unit": "min"}, {"measurement": "diastolic blood pressure, time of nadir", "setting": "Sprague Dawley rats [1]; 3 mg/kg SC", "value": 50, "unit": "min"}, {"measurement": "hypothermic response persisted through", "setting": "Sprague Dawley rats [1]; 3 mg/kg SC", "value": 4, "unit": "h"}, {"measurement": "mean blood pressure change", "setting": "Sprague Dawley rats [1]; 3 mg/kg SC", "value": "Marginally lower"}, {"measurement": "mean blood pressure, time of nadir", "setting": "Sprague Dawley rats [1]; 3 mg/kg SC", "value": 50, "unit": "min"}, {"measurement": "systolic blood pressure change", "setting": "Sprague Dawley rats [1]; 3 mg/kg SC", "value": "Marginally lower"}, {"measurement": "systolic blood pressure, time of nadir", "setting": "Sprague Dawley rats [1]; 3 mg/kg SC", "value": 50, "unit": "min"}, {"measurement": "diastolic hypotension persisting through", "setting": "Sprague Dawley rats [1]; 10 mg/kg SC", "value": "approximately 4 hours"}, {"measurement": "mean blood pressure hypotension persisting through", "setting": "Sprague Dawley rats [1]; 10 mg/kg SC", "value": "approximately 4 hours"}, {"measurement": "pulse pressure change", "setting": "Sprague Dawley rats [1]; 10 mg/kg SC", "value": "Marginally higher"}, {"measurement": "systolic hypotension persisting through", "setting": "Sprague Dawley rats [1]; 10 mg/kg SC", "value": "approximately 4 hours"}, {"measurement": "systolic hypotension persisting through", "setting": "Sprague Dawley rats [1]; 30 mg/kg SC", "value": "~6", "unit": "h"}, {"measurement": "time without recovery of body temperature", "setting": "Sprague Dawley rats [1]; 30 mg/kg SC", "value": "> 24", "unit": "h"}, {"measurement": "body temperature change", "setting": "Sprague Dawley rats [1]; 3, 10, and 30 mg/kg SC", "value": "Significantly lower"}, {"measurement": "diastolic blood pressure change", "setting": "Sprague Dawley rats [1]; 10 and 30 mg/kg SC", "value": "Significantly lower"}, {"measurement": "diastolic blood pressure, earliest time point of lowering", "setting": "Sprague Dawley rats [1]; 10 and 30 mg/kg SC", "value": 20, "unit": "min"}, {"measurement": "diastolic blood pressure, time of nadir", "setting": "Sprague Dawley rats [1]; 10 and 30 mg/kg SC", "value": 40, "unit": "min"}, {"measurement": "mean blood pressure change", "setting": "Sprague Dawley rats [1]; 10 and 30 mg/kg SC", "value": "Significantly lower"}, {"measurement": "mean blood pressure, time of nadir", "setting": "Sprague Dawley rats [1]; 10 and 30 mg/kg SC", "value": 40, "unit": "min"}, {"measurement": "systolic blood pressure change", "setting": "Sprague Dawley rats [1]; 10 and 30 mg/kg SC", "value": "Significantly lower"}, {"measurement": "systolic blood pressure, earliest time point of lowering", "setting": "Sprague Dawley rats [1]; 10 and 30 mg/kg SC", "value": 20, "unit": "min"}, {"measurement": "systolic blood pressure, time of nadir", "setting": "Sprague Dawley rats [1]; 10 and 30 mg/kg SC", "value": 40, "unit": "min"}, {"measurement": "dose resulting in significantly lower body temperature", "setting": "Sprague Dawley rats [1]; single SC injection", "value": "≥ 3", "unit": "mg/kg"}, {"measurement": "dose resulting in significantly lower systolic, diastolic, mean arterial blood pressure", "setting": "Sprague Dawley rats [1]; single SC injection", "value": "≥ 3", "unit": "mg/kg"}, {"measurement": "heart rate change", "setting": "Sprague Dawley rats [1]; single SC injection, all doses", "value": "Higher heart rates"}, {"measurement": "von Frey withdrawal force threshold vs phosphate buffer group", "setting": "Sprague Dawley rats [2]", "value": "reduced withdrawal force threshold"}, {"measurement": "clinical score", "setting": "Sprague Dawley rats [3]; 100 μg/mL (cycle 1), 15 min", "value": "non-zero"}, {"measurement": "clinical score vs PBS group", "setting": "Sprague Dawley rats [3]; 100 μg/mL (cycle 1), 90 minutes post-injection", "value": "non-zero"}, {"measurement": "clinical score vs PBS group", "setting": "Sprague Dawley rats [3]; 100 μg/mL, both time points", "value": "statistically significant increase in the clinical score"}, {"measurement": "clinical score vs similar dose of treprostinil", "setting": "Sprague Dawley rats [3]; [11]", "value": "reduced clinical score"}, {"measurement": "clinical score", "setting": "Sprague Dawley rats [4]", "value": "lower values of clinical score"}, {"measurement": "sensitivity to thermal stimulation", "setting": "Sprague Dawley rats [5]; 1 μg/mL, both time-points, compared with similar dose of treprostinil", "value": "reduced sensitivity to thermal stimulation"}, {"measurement": "thermal paw withdrawal time vs phosphate buffer treated group", "setting": "Sprague Dawley rats [5]; 100 μg/mL, 15 minutes post-administration", "value": "statistically significantly faster paw withdrawal time"}, {"measurement": "von Frey withdrawal force threshold vs PBS-treated group", "setting": "Sprague Dawley rats [6]; 1 μg/mL", "value": "no statistically significant difference"}, {"measurement": "von Frey withdrawal force threshold vs PBS-treated group", "setting": "Sprague Dawley rats [6]; 100 μg/mL", "value": "statistically significant increased sensitivity"}, {"measurement": "sensitivity to mechanical stimulation vs similar dose of treprostinil", "setting": "Sprague Dawley rats [6]; [11]", "value": "reduced sensitivity"}, {"measurement": "thermal paw withdrawal time vs PBS group", "setting": "Sprague Dawley rats [7]", "value": "trend toward reduction in the time of response"}, {"measurement": "clinical observations", "setting": "Sprague Dawley rats [8]", "value": "flushed body and/or extremities, piloerection, hypoactivity, reddened forelimb(s) and/or hindlimb(s), wet yellow material on the urogenital area and ventral trunk, and dried red material around nose"}]}
{"smiles": "CCOc1ccc2ccc(=O)oc2c1", "note": "[Prodrug 7-EC, 7-ethoxycoumarin]", "values": [{"measurement": "Half-life", "setting": "[9]", "value": 2.00, "unit": "min"}, {"measurement": "Half-life", "setting": "[10]; +NADPH", "value": 0.0982, "unit": "h"}, {"measurement": "Half-life", "setting": "[10]; −NADPH", "value": ">6", "unit": "h"}, {"measurement": "half-life at 500 nM", "setting": "in vitro", "value": "> 6", "unit": "h"}]}
